# US20220323454A1, “PHENOTHIAZINES AND THEIR DERIVATIVES FOR USE AS A MEDICAMENT” (Guangzhou Virotech Pharmaceutical Co., Ltd., priority 2019, published 2022)
# How the values were obtained:
# [1] = test system: Jurkat-PD-1-NFAT-LUC cells; test: NFAT-luciferase activity in Jurkat-PD-1-NFAT-LUC cells co-cultured with Raji-PD-L1 cells; assay type: cell-based, human; details: 4.86 μM MTC or LMT added with Raji-PD-L1 cells, 6 h co-culture; FIG. 1E
# Method: (§1) (1) Jurkat cells were used to construct a stable cell line expressing PD-1. The pCAGin-PD-1 plasmid was electroporated into Jurkat cells, which were then screened with 900 μg/mL G418 antibiotic and flow-sorted for single clones. Jurkat-PD-1 cells were then electroporated into a DNA fragment that controls the luciferase gene through the NFAT-binding site (referred to as NFAT-LUC). A single clone was then flow-sorted and named clone 5. Using this cell, the expression level of IL-2 can be measured by the activity of luciferase. Raji cells stably expressing PD-L1 were constructed, and the pCDNA-PD-L1 plasmid was electroporated into the Raji cells, followed by screening with 2 μg/mL puromycin, and then flow-sorted single clones and named clone 1.
# (4) A 96-well plate was coated with 10 μg/mL CD3 antibody/10 μg/mL CD28 antibody overnight at 4° C., and excess antibody then washed off with PBS. Raji cells or Raji-PD-L1 cells were co-cultured with Jurkat-PD-1-NFAT-LUC cells at a ratio of 1:1, or to a mixture of Raji-PD-L1 cells and Jurkat-PD-1-NFAT-LUC cells at a ratio of 1:1 was added 4.86 μM MTC or LMT. Luciferase substrate was added after 6h co-culture and the luciferase activity was measured by a microplate reader.
# B16-OVA cells = test: CTL killing of IFN-γ-treated B16-OVA melanoma cells (microscope); assay type: cell-based, mouse
# Method: (3) Melanoma cells B16-OVA (B16 cells expressing OVA gene) were treated with 10 μg/mL IFN-γ for 24 hours, and then mixed with CTL cells at a ratio of 1:5 and co-cultured for 4 hours. Cells were treated with 1 μM MTC. B16-OVA cells treated with DMSO or MTC only (without IFN-γ treatment) were used as control. The apoptosis of B16-OVA was observed by microscope, and then the killing ability of CTL cells to target cells was assessed.
# (§2) (4) The B16-OVA group received no treatment, and the medium was replaced with water in the Water group. The other groups were treated with 10 μg/mL IFNγ. After 24 hours, except for the B16-OVA group, each group was co-cultured with CTL cells at a ratio of 1:5 for 4 hours, and treated with MTC […], LMT (1 μM) or anti-PD1 (PD-1 antibody, 10 μg/mL, Nivolumab, BMS). The death of B16-OVA in each group was observed by microscope, and then the killing ability of CTL cells to target cells was assessed. […] The IFN-γ+MTC group and the IFN-γ+LMT group were treated with 10 μg/mL IFN-γ for 24 hours. The cells were then mixed with CTL cells at a ratio of 1:5, co-cultured for 4 hours and treated with MTC (1 μM) or LMT (1 μM). The MTC and LMT groups were treated with MTC (10 μM) or LMT (10 μM) only. The killing ability against target cells was observed.
# B16-WT cells = test: Killing of B16-WT melanoma cells, with or without CTL cells; assay type: cell-based, mouse; details: FIG. 4E
# Method: as §2
# EL4-OVA-mPDL1 cells = test: EL4-OVA-mPDL1 subcutaneous transplanted tumor in Rag1−/− mice given CTL cells; assay type: in vivo, mouse; details: CTL cells by tail vein, MTC 40 mg/kg/day intragastric, PD-1 antibody 10 mg/kg/2 days intraperitoneal, vs CTL cell-only group, FIGS. 5B, C, D
# Method: (1) Lymphoma cells overexpressing chicken ovalbumin OVA and mouse PD-L1, namely EL4-OVA-mPDL1 cells, were resuspended in BD Matrigel, in which, for one side of one mouse, 2×10^6 cells were resuspended in 100 μl BD Matrigel.
# (2) The mixture of cells and Matrigel was inoculated into the left and right flanks of Rag1−/− mice subcutaneously, each at a dosage of 100 μl.
# (3) When the tumor was fixed about 5 days after inoculation, activated OT-1 T cells (i.e., 2×10^6 CTL cells/mouse) were injected through the tail vein, and the mice were divided into 3 groups, namely the CTL cell group, the CTL cell +10 mg/kg/2 days PD-1 antibody group, and the CTL cell +40 mg/kg/day MTC group.
# (4) The length and width of the transplanted tumor of each group of mice were measured from the day of tail vein injection of CTL cells, and every other day, and the tumor volume was calculated as length×width^2/2 (FIG. 5A).
# [2] = test system: Jurkat-PD-1-NFAT-LUC cells; test: IL-2 secretion by Jurkat-PD-1-NFAT-LUC cells co-cultured with Raji-PD-L1 cells (ELISA); assay type: cell-based, human; details: Raji-PD-L1 : Jurkat-PD-1-NFAT-LUC 1:1, CD3/CD28 antibody coated plate, 6 hours; 1 μM MTC or 10 μg/mL PD1 antibody; FIG. 1D
# Method: as §1
# (3) A 96-well plate was coated with 10 μg/mL CD3 antibody/10 μg/mL CD28 antibody overnight at 4° C. and excess antibody was washed off with PBS. Raji cells or Raji-PD-L1 cells were co-cultured with Jurkat-PD-1-NFAT-LUC cells at a ratio of 1:1, or to a mixture of Raji-PD-L1 cells and Jurkat-PD-1-NFAT-LUC cells at a ratio of 1:1 was added 1 μM MTC or 10 μg/mL PD1 antibody for co-culture; after 6 hours of co-culture, the secretion of IL-2 in the supernatant was measured by ELISA.
Compound,luciferase activity [1],"killing effects of CTL cells to B16-OVA cells (B16-OVA cells; B16-OVA treated with 10 μg/mL IFNγ 24 hours, B16-OVA : CTL 1:5, 4 hours, MTC (1 µM), LMT (1 μM), FIGS. 4C and 4D)","combined killing effect with CTL cells on B16-OVA compared with the anti-PD-1 group (B16-OVA cells; MTC (1 µM) or LMT (1 μM) vs anti-PD1 10 μg/mL, FIG. 4D)","killing effect on B16-WT cells, combination with CTL cells (B16-WT cells; IFN-γ 10 μg/mL 24 hours, B16-WT : CTL 1:5, 4 hours, MTC (1 μM) or LMT (1 μM))","killing effect on B16-WT cells, compound only (B16-WT cells; MTC (10 μM) or LMT (10 μM) only)",tumor growth (tumor volume and tumor weight) (EL4-OVA-mPDL1 cells),secretion of IL-2 in the supernatant [2]
"CN(C)c1ccc2c(c1)Sc1cc(N(C)C)ccc1N2 [LMT, N3,N3,N7,N7-tetramethyl-10H-phenothiazine-3,7-diammonium dimesylate]",increased dramatically,significantly enhanced,significantly stronger than that of the anti-PD-1 group,no killing effect,no killing effect,,
"PD-1 antibody: anti-PD-1 antibody (Nivolumab, Bristol-Myers Squibb) used as comparator",,,,,,inhibited,sharply enhanced
